Experimental data: publication PMC8294059, “Identification and Immune Assessment of T Cell Epitopes in Five Plasmodium falciparum Blood Stage Antigens to Facilitate Vaccine Candidate Selection and Optimization” (Frontiers in Immunology, 2021)
Where a SMILES comes first, the peptide text is derived from it.

Columns and labels:
Test in all cases: biochemical
Assay type in all cases: binding
[1] = target: T1, HLA-DRB1*0101 (Homo sapiens, UniProt P01903+P01911, A100R/D57E/F55L/F60I/F76Y/I96L/L162R/M171V/P40L/Q125E/R42F/V115G/Y59C); details: binding inhibition assay; NB = non-binder (no dose-dependent inhibition); read-out: DRB1*0101 IC50
T1 construct: purchased
Summary of the method: (§1)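 IC50 values reflect how well each test peptide displaces a labeled high-affinity reference peptide from commercially available HLA-DRB1 allele monomers. Final test concentrations spanned 100,000 nM to 100 nM, with detection by europium-based time-resolved fluorescence after anti-HLA-DR capture.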

[2] = target: HLA-DRB1*0801 (Homo sapiens, UniProt P01903+P01911, A100R/A103L/A169T/D86S/F76Y/H45Y/I96F/K41T/L162R/M171V/P40S/Q125H/Q178H/Q39Y/Q99D/R218S/R42G/S66Y/V115G/W38E); details: binding inhibition assay; NB = non-binder (no dose-dependent inhibition); read-out: DRB1*0801 IC50
Summary of the method: as §1

[3] = target: HLA-DRB1*1301 (Homo sapiens, UniProt P01903+P01911, A100E/A169T/K41T/L162R/M171V/P40S/Q125H/Q178H/Q39Y/Q99D/R42S/S66N/T262R/W38E/Y61H); details: binding inhibition assay; NB = non-binder (no dose-dependent inhibition); read-out: DRB1*1301 IC50
Summary of the method: as §1

[4] = target: T2, HLA-DRB1*0401 (Homo sapiens, UniProt P01903+P01911, A100K/A169T/F76Y/I96L/K127E/L162R/M171V/N62H/P40V/Q125Y/R42H/S133A/S149N/S66Y/V115G/V209L/W38E); details: binding inhibition assay; NB = non-binder (no dose-dependent inhibition); read-out: DRB1*0401 IC50
T2 construct: purchased
Summary of the method: as §1

[5] = target: HLA-DRB1*0701 (Homo sapiens, UniProt P01903+P01911, A100R/A102G/A103Q/D57E/D86V/E43K/F76Y/K127E/L162R/M171V/P40G/Q125H/Q99D/R33Q/R42Y/R54Q/S133A/S66F/T210M/V115G/Y107V/Y59L/Y89S); details: binding inhibition assay; NB = non-binder (no dose-dependent inhibition); read-out: DRB1*0701 IC50
Summary of the method: as §1

[6] = target: T3, HLA-DRB1*1501 (Homo sapiens, UniProt P01903+P01911); details: binding inhibition assay; NB = non-binder (no dose-dependent inhibition); read-out: DRB1*1501 IC50
T3 construct: purchased
Summary of the method: as §1

[7] = target: HLA-DRB1*1101 (Homo sapiens, UniProt P01903+P01911, A100R/A169T/A87E/I96F/K41T/L162R/M171V/P40S/Q125H/Q178H/Q39Y/Q99D/R42S/S66Y/T262R/V115G/W38E); details: binding inhibition assay; NB = non-binder (no dose-dependent inhibition); read-out: DRB1*1101 IC50
Chain of HLA-DRB1*1101 (P01903 26-254 limits assumed, other chains not shown): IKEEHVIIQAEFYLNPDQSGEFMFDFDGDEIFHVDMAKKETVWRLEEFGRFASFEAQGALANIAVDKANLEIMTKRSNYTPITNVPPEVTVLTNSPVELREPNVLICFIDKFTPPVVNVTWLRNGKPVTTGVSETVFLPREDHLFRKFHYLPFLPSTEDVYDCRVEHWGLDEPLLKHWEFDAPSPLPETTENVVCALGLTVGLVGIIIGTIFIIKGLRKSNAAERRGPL
Summary of the method: as §1

CC[C@H](C)[C@H](NC(=O)[C@H](CC(N)=O)NC(=O)[C@H](Cc1ccc(O)cc1)NC(=O)[C@H](CC(N)=O)NC(=O)[C@H](CO)NC(=O)[C@H](CC(C)C)NC(=O)[C@H](CCC(=O)O)NC(=O)[C@H](CCCCN)NC(=O)[C@H](Cc1ccccc1)NC(=O)[C@H](Cc1c[nH]cn1)NC(=O)[C@H](Cc1ccc(O)cc1)NC(=O)[C@H](CCC(N)=O)NC(=O)[C@@H](N)CC(C)C)C(=O)N[C@@H](C)C(=O)N[C@@H](CC(N)=O)C(=O)N[C@@H](CO)C(=O)N[C@H](C(=O)N[C@@H](CC(=O)O)C(N)=O)[C@@H](C)CC [RH5_005] (H-LQYHFKELSNYNIANSID-NH2)
IC50 [1]: 0.018 µM
IC50 [2]: 19.4 µM
IC50 [3]: 50.9 µM
IC50 [4]: 2.86 µM
IC50 [5]: 3.79 µM
IC50 [6]: 0.025 µM
IC50 [7]: 11.3 µM

CC[C@H](C)[C@H](NC(=O)[C@H](CS)NC(=O)[C@H](CCCCN)NC(=O)CNC(=O)[C@H](Cc1ccc(O)cc1)NC(=O)[C@@H](NC(=O)[C@H](CO)NC(=O)[C@H](CO)NC(=O)[C@H](CCCCN)NC(=O)[C@H](Cc1c[nH]cn1)NC(=O)[C@H](Cc1ccc(O)cc1)NC(=O)[C@@H](NC(=O)[C@H](CO)NC(=O)[C@H](CC(N)=O)NC(=O)[C@H](Cc1ccc(O)cc1)NC(=O)[C@H](CO)NC(=O)[C@H](CC(C)C)NC(=O)[C@H](Cc1c[nH]cn1)NC(C)=O)[C@@H](C)CC)[C@@H](C)O)C(=O)N[C@@H](C)C(N)=O [RH5_006B] (Ac-HLSYNSIYHKSSTYGKCIA-NH2)
IC50 [1]: 1.35 µM
IC50 [2]: 18.9 µM
IC50 [3]: 29.3 µM
IC50 [4]: 2.91 µM
IC50 [5]: 19.8 µM
IC50 [6]: 7.8 µM
IC50 [7]: 0.834 µM

CC[C@H](C)[C@H](NC(=O)[C@H](Cc1ccc(O)cc1)NC(=O)[C@@H](NC(=O)[C@H](Cc1ccc(O)cc1)NC(=O)[C@H](CO)NC(=O)CNC(=O)[C@H](CCSC)NC(=O)[C@H](CCCCN)NC(=O)[C@H](CCCCN)NC(=O)[C@H](CC(N)=O)NC(=O)[C@H](CC(C)C)NC(=O)[C@H](CC(N)=O)NC(=O)[C@@H](NC(=O)[C@H](CC(C)C)NC(=O)[C@H](CC(C)C)NC(=O)[C@H](CC(C)C)NC(=O)[C@H](CCC(=O)O)NC(=O)[C@@H](N)CO)[C@@H](C)O)[C@@H](C)CC)C(N)=O [RH5_010B] (H-SELLLTNLNKKMGSYIYI-NH2)
IC50 [1]: 0.077 µM
IC50 [2]: 6.46 µM
IC50 [3]: 9.34 µM
IC50 [4]: 84 µM
IC50 [5]: 41.5 µM
IC50 [6]: 9.97 µM
IC50 [7]: 0.204 µM

CC[C@H](C)[C@H](NC(=O)[C@H](CC(N)=O)NC(=O)[C@H](CC(N)=O)NC(=O)[C@H](CC(C)C)NC(=O)[C@H](Cc1c[nH]cn1)NC(=O)[C@H](CCCCN)NC(C)=O)C(=O)N[C@@H](Cc1ccccc1)C(=O)N[C@@H](Cc1c[nH]cn1)C(=O)N[C@@H](Cc1c[nH]cn1)C(=O)N[C@@H](CC(C)C)C(=O)N[C@H](C(=O)N[C@@H](Cc1ccc(O)cc1)C(=O)N[C@H](C(=O)N[C@@H](CC(C)C)C(=O)N[C@@H](CCC(N)=O)C(=O)N[C@@H](CCSC)C(=O)N[C@@H](CCCCN)C(N)=O)C(C)C)[C@@H](C)CC [RH5_012] (Ac-KHLNNIFHHLIYVLQMK-NH2)
IC50 [1]: 0.025 µM
IC50 [2]: 91.7 µM
IC50 [3]: 8.83 µM
IC50 [4]: 7.23 µM
IC50 [5]: 24.2 µM
IC50 [6]: 7.71 µM
IC50 [7]: 33.9 µM

CC[C@H](C)[C@H](NC(=O)[C@H](CCCCN)NC(=O)[C@H](CCC(=O)O)NC(=O)[C@@H](NC(=O)[C@H](CO)NC(=O)[C@H](CC(=O)O)NC(=O)[C@H](CCCNC(=N)N)NC(=O)[C@H](CC(N)=O)NC(=O)[C@H](CC(C)C)NC(=O)[C@@H](NC(=O)[C@@H](NC(=O)[C@H](Cc1ccc(O)cc1)NC(=O)[C@@H](NC(=O)[C@H](Cc1ccc(O)cc1)NC(=O)[C@H](CCCCN)NC(=O)[C@H](CC(N)=O)NC(=O)[C@H](CC(C)C)NC(=O)[C@H](Cc1ccc(O)cc1)NC(=O)[C@H](C)NC(=O)[C@H](Cc1ccc(O)cc1)NC(=O)[C@H](CC(=O)O)NC(C)=O)C(C)C)[C@@H](C)O)[C@@H](C)CC)[C@@H](C)O)C(=O)N[C@@H](CCCCN)C(=O)N[C@H](C(=O)N[C@@H](Cc1ccccc1)C(N)=O)[C@@H](C)O [RIPR_002] (Ac-DYAYLNKYVYTILNRDSTEKIKTF-NH2)
IC50 [1]: 0.152 µM
IC50 [2]: 16.1 µM
IC50 [3]: 50.4 µM
IC50 [4]: 16.7 µM
IC50 [5]: 6.91 µM
IC50 [6]: 0.201 µM
IC50 [7]: 1.47 µM

CC(=O)N[C@H](C(=O)N[C@@H](CO)C(=O)N[C@@H](CS)C(=O)N[C@@H](Cc1ccc(O)cc1)C(=O)N[C@@H](CCCNC(=N)N)C(=O)N[C@H](C(=O)N[C@@H](CO)C(=O)N[C@@H](Cc1ccccc1)C(=O)N[C@@H](CC(N)=O)C(=O)N[C@@H](CC(C)C)C(=O)N[C@@H](CC(N)=O)C(=O)N[C@@H](CCCCN)C(=O)N[C@@H](CC(C)C)C(=O)N[C@@H](CCCCN)C(=O)N[C@@H](Cc1ccc(O)cc1)C(=O)N[C@H](C(=O)N[C@H](C(=O)N[C@@H](CCC(=O)O)C(=O)N[C@@H](CO)C(N)=O)[C@@H](C)O)C(C)C)C(C)C)C(C)C [RIPR_006] (Ac-VSCYRVSFNLNKLKYVTES-NH2)
IC50 [1]: 0.446 µM
IC50 [2]: 11.3 µM
IC50 [3]: 11.5 µM
IC50 [4]: 8.78 µM
IC50 [5]: 0.952 µM
IC50 [6]: 6.96 µM
IC50 [7]: 9.32 µM

CC[C@H](C)[C@H](NC(=O)[C@H](CC(N)=O)NC(=O)[C@H](CCC(N)=O)NC(=O)[C@H](CC(N)=O)NC(=O)[C@H](CC(N)=O)NC(=O)[C@H](Cc1ccccc1)NC(=O)[C@@H](NC(=O)[C@H](CS)NC(=O)[C@H](CC(C)C)NC(=O)[C@H](Cc1ccc(O)cc1)NC(=O)[C@H](CC(=O)O)NC(=O)[C@@H](N)Cc1ccc(O)cc1)C(C)C)C(=O)N[C@H](C(=O)N[C@@H](CO)C(=O)N[C@@H](CC(=O)O)C(=O)N[C@@H](CCCCN)C(=O)N[C@@H](CC(N)=O)C(N)=O)[C@@H](C)O [RIPR_007] (H-YDYLCVFNNQNITSDKN-NH2)
IC50 [1]: 2.78 µM
IC50 [2]: 99 µM
IC50 [3]: 9.26 µM
IC50 [4]: 4.6 µM
IC50 [5]: 3.05 µM
IC50 [6]: 0.165 µM
IC50 [7]: 8.65 µM

CC[C@H](C)[C@H](NC(=O)[C@H](CCC(=O)O)NC(=O)[C@@H](NC(=O)[C@H](CCCCN)NC(=O)[C@H](CCCCN)NC(C)=O)C(C)C)C(=O)N[C@@H](Cc1ccccc1)C(=O)N[C@@H](CCCNC(=N)N)C(=O)N[C@@H](CO)C(=O)N[C@@H](CCCNC(=N)N)C(=O)N[C@@H](Cc1ccccc1)C(=O)N[C@@H](CO)C(=O)N[C@@H](CO)C(=O)N[C@@H](CCCCN)C(=O)N[C@@H](CC(C)C)C(=O)N[C@@H](CCC(N)=O)C(=O)N[C@@H](CS)C(=O)N[C@@H](CCC(N)=O)C(N)=O [RIPR_011] (Ac-KKVEIFRSRFSSKLQCQ-NH2)
IC50 [1]: 1.36 µM
IC50 [2]: 65.6 µM
IC50 [3]: 9.43 µM
IC50 [4]: 22 µM
IC50 [5]: 13.7 µM
IC50 [6]: 0.007 µM
IC50 [7]: 9.22 µM

CC[C@H](C)[C@H](NC(=O)[C@H](CS)NC(=O)[C@H](CCC(=O)O)NC(=O)CNC(=O)[C@H](CCCNC(=N)N)NC(=O)[C@H](CO)NC(=O)[C@H](CO)NC(=O)[C@H](CCCNC(=N)N)NC(=O)[C@H](Cc1ccc(O)cc1)NC(=O)[C@H](Cc1ccc(O)cc1)NC(=O)[C@H](Cc1c[nH]cn1)NC(=O)[C@H](CCC(=O)O)NC(=O)[C@H](CCCCN)NC(C)=O)C(=O)N[C@@H](CC(C)C)C(=O)N[C@@H](CC(N)=O)C(=O)N[C@@H](CC(=O)O)C(N)=O [RIPR_017] (Ac-KEHYYRSSRGECILND-NH2)
IC50 [1]: 0.025 µM
IC50 [2]: 6.44 µM
IC50 [3]: > 100 µM
IC50 [4]: > 100 µM
IC50 [5]: 0.489 µM
IC50 [6]: 58.2 µM
IC50 [7]: 1.38 µM
